{
  "source": "patent US8933071B2",
  "about": "“Dimethyl fasudil for inducing polyploidization of megakaryocytes and for treating blood and bone marrow diseases and disorders” (Northwestern University, priority 2008, dated 2015)",
  "key": {"[1]": {"system": "CD41+ megakaryocytes obtained from human MPD bone marrow", "type": "cell-based", "conditions": "ET patient bone marrow, TPO, 5 days", "method": "Two lead compounds were tested on samples from both MPD (myeloproliferative disease) patients and AMKL (acute megakaryocytic leukemia) patients. […] Referring to FIG. 8, bone marrow samples from patients with AMKL were cultured in DMSO (control) or DMF (at 5 μM) for 14 days. Colonies were stained with anti-CD41 antibody and visualized by microcopy (not shown). Total numbers of CD41+ megakaryocyte colonies are shown.\nMononuclear cells from bone marrow of patients were obtained by informed consent from patients at Northwestern Feinberg School of Medicine. Mononuclear cells were separated from marrow with Ficoll (GE Healthcare life sciences, Piscataway, N.J.) and resuspended in IMDM (Iscove's Modified Dulbecco's Media) media without serum. The cells were stained with 0.4% trypan blue solution for 5 minutes and live cells were counted. Live cells were assayed in CFU-MK (“Colony forming units-megakaryocytes”) and BFU-E (“Burst forming unit-erythroid”) assays as well as in liquid culture.\nMarrow cells from ET patients were also cultured in RPMI with 10% FBS in the presence of recombinant human TPO (thrombopoeitin, 50 ng/ml). […] DNA content of both CD41+ cells and CD41-negative cells was analyzed by utilizing a BD LSRII flow cytometer (BD Biosciences San Jose, Calif.)."}, "GIME cells": {"system": "GIME cells", "type": "cell-based", "conditions": "10 μM, 48 hours, DMSO 0.3%", "protocol": "DNA content was then assessed by flow cytometry. Numbers above the bar indicate % of cells ≧8N. b) After 48 hours, GIME cells from a) were stained with anti-CD42 antibodies and the cell surface expression of CD42 was evaluated by flow cytometry.\n(§1) In collaboration with the Broad Institute, a high throughput screen for small molecules was conducted to identify small molecules that preferentially induce polyploidization or differentiation of megakaryocytes. We screened 10,000 compounds from the Broad's extensive collection of small molecules (including known bioactives, kinase and HDAC inhibitors, and natural products) to identify inducers of megakaryocyte polyploidization. The screen was performed in the following manner: 1) 4,000 CMK (human megakaryocytic leukemia) cells were plated into each well of a 384-well plate, 2) 100 n1 of compounds (yielding a final concentration of 10 μM) were pinned into the wells, 3) plates were incubated at 37° C. for 72 hours, 4) cells were fixed and stained with Hoescht, and 5) plates were imaged using an ImageXpressMICRO high content imager with 20× objective. Nine images per well were collected. 6) Data were analyzed using both MetaXpress software and “Cell Profiler,” software designed at MIT and the Broad Institute. Seventy-two plates containing duplicates of nearly 10,000 small molecules were screened."}, "[2]": {"system": "erythroid colonies in human MPD bone marrow cultures", "type": "cell-based", "conditions": "ET patient bone marrow, 14 days", "method": "MPDs Patient Specimens. Mononuclear cells from bone marrow of patients were obtained by informed consent from patients at Northwestern Feinberg School of Medicine. Mononuclear cells were separated from marrow with Ficoll (GE Healthcare life sciences, Piscataway, N.J.) and resuspended in IMDM (Iscove's Modified Dulbecco's Media) media without serum. The cells were stained with 0.4% trypan blue solution for 5 minutes and live cells were counted. Live cells were assayed in CFU-MK (“Colony forming units-megakaryocytes”) and BFU-E (“Burst forming unit-erythroid”) assays as well as in liquid culture.\nBFU-E (Burst forming unit-erythroid) assay. Live ET bone marrow cells were added to MethoCult media (4436, StemCell Technologies, Vancouver, BC, Canada) with recombinant human EPO (erythropoeitin, 3 U/mL), recombinant human SCF (stem cell factor, 50 ng/mL), recombinant human GM-CSF (granulocyte macrophage colony-stimulating factor, 10 ng/mL) and recombinant human IL-3 (10 ng/mL). […] Cells were plated in duplicate in 35 mm culture dishes according the manufacturer's protocol. On the 14th day, red colonies composed of hemoglobinized erythroblasts were identified and scored."}, "[3]": {"system": "CMK (human megakaryocytic leukemia) cells", "assay": "High throughput screen for inducers of megakaryocyte polyploidization", "type": "cell-based", "conditions": "10 μM, 72 hours, Hoescht stain, high content imaging", "protocol": "as §1"}, "[4]": {"system": "CD41+ megakaryocyte fraction", "assay": "Polyploidization of primary human megakaryocytes (CD34+ cells cultured with TPO), CD41+ fraction", "type": "cell-based", "conditions": "CD34+ cells cultured with TPO 12 days, compound added after 9 days", "protocol": "FIG. 4 illustrates that DMF induces polyploidization of normal human megakaryocytes and that its activity is restricted to the CD41+ population. Human CD34+ cells were cultured with TPO for 12 days and then fixed and stained with DAPI. DMSO or DMF were added to the culture after 9 days. DNA content was then assessed by flow cytometry. Numbers above the bar indicate % of cells ≧8N.\nIn collaboration with the Broad Institute, a high throughput screen for small molecules was conducted to identify small molecules that preferentially induce polyploidization or differentiation of megakaryocytes. We screened 10,000 compounds from the Broad's extensive collection of small molecules (including known bioactives, kinase and HDAC inhibitors, and natural products) to identify inducers of megakaryocyte polyploidization. The screen was performed in the following manner: 1) 4,000 CMK (human megakaryocytic leukemia) cells were plated into each well of a 384-well plate, 2) 100 n1 of compounds (yielding a final concentration of 10 μM) were pinned into the wells, 3) plates were incubated at 37° C. for 72 hours, 4) cells were fixed and stained with Hoescht, and 5) plates were imaged using an ImageXpressMICRO high content imager with 20× objective. Nine images per well were collected. 6) Data were analyzed using both MetaXpress software and “Cell Profiler,” software designed at MIT and the Broad Institute. […]"}, "[5]": {"system": "megakaryocyte colonies (CFU-MK) from MPD bone marrow", "assay": "CFU-MK assay, bone marrow mononuclear cells from a patient with ET", "type": "cell-based, human", "conditions": "two doses, 10 days", "protocol": "FIG. 5 illustrates that the Rho kinase inhibitor dimethylfasudil (DMF) (also know as “ROCK inhibitor”) blocks formation of megakaryocyte colonies (CFU-MK) by bone marrow from patients with Myeloproliferative Disease (MPD).\n(§2) Data with Patient Samples. Two lead compounds were tested on samples from both MPD (myeloproliferative disease) patients and AMKL (acute megakaryocytic leukemia) patients. […] Referring to FIG. 5, bone marrow mononuclear cells from a patient with ET were cultured with two doses of DMF for 10 days. […] Referring to FIG. 8, bone marrow samples from patients with AMKL were cultured in DMSO (control) or DMF (at 5 μM) for 14 days. Colonies were stained with anti-CD41 antibody and visualized by microcopy (not shown). Total numbers of CD41+ megakaryocyte colonies are shown.\nMPDs Patient Specimens. Mononuclear cells from bone marrow of patients were obtained by informed consent from patients at Northwestern Feinberg School of Medicine. […] The cells were stained with 0.4% trypan blue solution for 5 minutes and live cells were counted. […]\n(§3) CFU-MK (Colony forming units-megakarvocvtes) assay. […] Slides were scored microscopically, and megakaryocyte colonies were defined as colonies with at least three megakaryocytes."}, "[6]": {"system": "human AMKL leukemic cells", "assay": "CFU-MK assay, bone marrow samples from patients with AMKL", "type": "cell-based", "conditions": "5 μM, 14 days, AMKL patient bone marrow", "protocol": "FIG. 8 illustrates that DMF blocks the growth of human AMKL leukemic cells. Mononuclear cells from patients with AMKL were cultured in methylcellulose in the presence of either DMSO or 5 μM of DMF.\nas §2\nAMKL Patient Specimens. Frozen bone marrow mononuclear cells of acute megakaryocytic leukemia (AMKL) were obtained from human patients with help from the Children's Oncology Group (COG). After thawing, cells were resuspended in IMDM media without serum. The cells were stained with 0.4% trypan blue solution for 5 minutes and live cells were counted. Live cells were assayed for leukemic potential in a CFU-MK assay (details below).\nas §3"}},
  "data": [
    {"substance": "dimethylfasudil [DMF]", "values": [
      {"measurement": "polyploidization of bone marrow megakaryocytes", "setting": "[1]", "value": "potently induced polyploidization"},
      {"measurement": "expression of the late megakaryocyte marker CD42", "setting": "GIME cells", "value": 66.3, "unit": "%"},
      {"measurement": "formation of aberrant erythroid colonies", "setting": "[2]", "value": "potently blocked formation"},
      {"measurement": "positive in polyploidization screen", "setting": "[3]", "value": "positives"},
      {"measurement": "polyploidization of primary human megakaryocytes", "setting": "[4]", "value": "potently induced polyploidization"},
      {"measurement": "formation of aberrant megakaryocyte colonies (CFU-MK)", "setting": "[5]", "value": "potently blocked formation"},
      {"measurement": "growth of human leukemia cells (CD41+ megakaryocyte colonies)", "setting": "[6]", "value": "potently blocked growth"}
    ]}
  ]
}
